Assay [1] has as its system Human PBMCs. Briefly: Inhibition of anti-CD3-induced T lymphocyte proliferation of PBMCs. The class given is cell-based. The following applies: 48 hrs; for Inhibition of cell proliferation (in words), anti-CD3: range of dilutions. On the procedure:
Inhibition of Anti-CD3-induced T Lymphocyte Activation and Proliferation
(§1) The compounds of examples 1, 6, 19, 39, 40 and 43 above were tested for its effects on anti-CD3-driven proliferation of peripheral blood mononuclear cells (PBMCs) in vitro. The PBMCs were activated with anti-CD3 antibody which directly activates T lymphocytes via the T cell receptor CD3 component, although other cells do contribute to T cell proliferation by co-stimulation and growth factor production. Human PBMCs (5×10^4cells/well), purified from whole blood by centrifugation through ficoll/hypaque, were incubated in monoclonal anti-CD3 antibody-coated wells (5 μg/ml) and compound 1 at a range of dilutions in a 96 well microtitre plate for 48 hrs at 37° C. in a 5% CO2 incubator. DMSO was run in each assay as a vehicle control. 0.5 μCuries of tritiated thymidine in 40 μl (Amersham) were added to each well during the final 18 hrs. The cells were then harvested on glass fibre pads using a Tomtech cell harvester and, after adding scintillant to the pad (Meltilex) they were placed in a Wallac MicroBeta plate counter. The results obtained are in counts per minute and reflect the level of tritiated thymidine incorporation into the cells and therefore the level of cell proliferation. The percentage proliferation in test wells compared to control wells was calculated. The results were plotted and the IC50 value calculated.

In the next assay the test system is CD69. Description: CD69 expression on T cells activated by anti-CD3 (FACS). The class given is cell-based, Human. Conditions: 4 hrs treatment; untreated cells 68%. On the procedure: as §1, with “The results obtained are in counts per minute and reflect the level of tritiated thymidine incorporation into the cells and therefore the level of cell proliferation.” left out
CD69 is a membrane marker of T cell activation. The level of CD69 expression on the membranes of T cells activated by anti-CD3 was therefore measured by fluorescence activated cell (FACS) flow cytometry.

The test system of assay [2] is Human PBMCs. Description: Inhibition of antigen (PPD)-induced T lymphocyte proliferation of PBMCs. The class given is cell-based. Conditions: PBMC, PPD 1 μg/ml, 72 hrs, tritiated thymidine, read-out: IC50, PBMCs stimulated with PPD.
For assay [3], the system named is Human PBMCs. Description: Inhibition of mitogen (PWM)-induced lymphocyte proliferation of PBMCs. The class given is cell-based. Conditions: PBMC, PWM 2.5 μg/ml, 48 hrs, tritiated thymidine, read-out: IC50, PBMCs stimulated with PWM. On the procedure:
Inhibition of Mitogen-induced Lymphocyte Proliferation
The compounds of examples 1, 2, 3, 6, 19, 39, 40 and 43 above were tested for their effects on the proliferation of peripheral blood mononuclear cells (PBMCs) in vitro. The PBMCs were activated with Pokeweed mitogen (PWM), a potent activator of lymphocytes and monocytes which leads to B and T lymphocyte proliferation.
Human PBMCs (2×10^4 cells/well), purified from whole blood by centrifugation through ficoll/hypaque, were incubated with PWM (2.5 μg/ml) and compounds 1 and 2 at a range of dilutions in 96 well microtitre plates for 48 hrs at 37° C. in a 5% CO2 incubator. DMSO was run in each assay as a vehicle control. 0.5 μCuries of tritiated thymidine in 40 μl (Amersham) were added to each well during the final 18 hrs. The cells were then harvested on glass fibre pads using a Tomtech cell harvester and, after adding scintillant to the pad (Meltilex) they were placed in a Wallac MicroBeta plate counter. The results obtained are in counts per minute and reflect the level of tritiated thymidine incorporation into the cells and therefore the level of cell proliferation. The percentage proliferation in test wells compared to control wells was calculated and the inhibition curves plotted. The IC50 values were calculated from the inhibition curves.

Another assay relates to TNF alpha. Briefly: Inhibition of TNF production in PWM-activated whole blood. In kind it is cell-based. The following applies: 10 μM, PWM-activated whole blood diluted 1/5, 24 hours; for TNF alpha: vehicle 1031 pg/ml. On the procedure: (§2) Human PBMCs (2-5×10^6 cells/well), purified from whole blood by centrifugation through ficoll/hypaque, were incubated with either PWM (2.5 μg/ml) or PPD (1 μg/ml) and compound example 3 at 10 μM in a 24 well microtitre plates for 48 hrs at 37° C. in a CO2 incubator. DMSO was run in each assay as a vehicle control. Supernatant was removed after 48 hrs and microfuged at 10,000 rpm for 2 minutes. Supematant was removed, aliquotted and stored at -70° C. until tested.
In a modification of the above procedure, the compounds of Examples 19 and 40 were tested at 10 μM for inhibition of TNF production in PWM-activated whole blood diluted 1/5 in RPMI containing 1% nutridoma. The supernatants were tested after 24 hours of culture.

Assay [4] concerns TNF. Description: Inhibition of production of TNF, PPD-activated PBMCs (ELISA). The following applies: 48 hrs. In kind it is cell-based, Human. Here is the method:
(§3) Inhibition of Production of TNF
(§4) The compound of example 3 above was tested for its effect on the production of the pro-inflammatory cytokine TNF. TNF is released from various cells (monocytes and B lymphocytes) following activation by mitogen or antigen. The production of this inflammatory mediator in the supernatant of activated PBMCs was measured by ELISA.
as §2
Background: In an ELISA, binding on a coated surface is turned into a signal by an enzyme label.

In assay [5] the test system is TNF. Description: Inhibition of production of TNF, PWM-activated PBMCs (ELISA). The following applies: 48 hrs. In kind it is cell-based, Human. On the procedure: as §3, §4, §2
Assay [6] has as its system Experimental Autoimmune Neuritis. Briefly: Experimental Autoimmune Neuritis animal model. In kind it is in vivo, Male Lewis rats. Conditions: 100 mg.kg^-1 ip uid, day 1 to 14; day 15 post-inoculation; groups of 9.

Usually IC50 stands for the concentration that gives 50% inhibition.

As for `C=CC[C@H](C(=O)NO)[C@@H](CC(C)C)C(=O)N[C@@H](COC(C)(C)C)C(=O)OC1CCCC1` [Example 39, 3-tert-Butoxy-2S-(3S-hydroxycarbamoyl-2R-isobutyl-hex-5-enoylamino)-propionic acid cyclopentyl ester], in the assay with Human PBMCs [1], the “Inhibition of cell proliferation (in words), anti-CD3” value (“Inhibition of cell proliferation” below) is on record as “inhibited cell proliferation in a dose related fashion”.
For `C=CC[C@H](C(=O)NO)[C@@H](CC(C)C)C(=O)N[C@@H](Cc1ccccc1)C(=O)OC` [Example 1, 2S-(3S-Hydroxycarbamoyl-2R-isobutyl-hex-5-enoylamino)-3-phenylpropionic acid methyl ester], the IC50 stood at 2100 nM in the assay on Human PBMCs [1] (Homo sapiens, PBMC, anti-CD3 antibody-coated wells 5 μg/ml, tritiated thymidine, read-out: IC50, PBMCs stimulated with ANTI-CD3); 2000 nM in the assay with Human PBMCs [2]; 4700 nM with Human PBMCs [3]. Moreover, in the assay with Human PBMCs [1], the “Inhibition of cell proliferation” value is listed as “inhibited cell proliferation in a dose related fashion”. For the same compound, the “expression of CD69 (% of T cells)” value in the assay with CD69 stood at 48%.
On to `C=CC[C@H](C(=O)NO)[C@@H](CC(C)C)C(=O)N[C@@H](Cc1ccccc1)C(=O)OCC` [Example 2, 2S-(3S-Hydroxycarbamoyl-2R-isobutyl-hex-5-enoylamino)-3-phenylpropionic acid ethyl ester], for which the 50% inhibitory concentration (IC50) in the assay with Human PBMCs [3] is 4800 nM.
Turning to `C=CC[C@H](C(=O)NO)[C@@H](CC(C)C)C(=O)N[C@H](C(=O)OC1CCCC1)c1ccccc1` [Example 40, 2S-(3S-Hydroxycarbamoyl-2R-isobutyl-hex-5-enoylamino)-2-phenylethanoic acid cyclopentyl ester], the “Inhibition of cell proliferation” value in the assay on Human PBMCs [1] is recorded as “inhibited cell proliferation in a dose related fashion”. In addition, in the assay with TNF alpha, the “TNF production (in words)” value is “reduced the level of TNF production” and the TNF alpha is 600 pg/mL.
Regarding `CC(C)C[C@@H](C(=O)NC(C(=O)OC1CCCC1)c1ccccc1)[C@H](O)C(=O)NO` (stereo partly drawn) [Example 43, 2-[2R-(S-Hydroxy-hydroxycarbamoyl-methyl)-4-methyl-pentanoylamine]-2-phenyl-ethanoic acid cyclopentyl ester], in the assay on Human PBMCs [1], the “Inhibition of cell proliferation” value is given as “inhibited cell proliferation in a dose related fashion”.
`CC(C)C[C@H](CC(=O)NO)C(=O)N[C@@H](Cc1ccccc1)C(=O)OC(C)C` [Example 6, 2S-(2R-Hydroxycarbamoylmethyl-4-methyl-pentanoylamino)-3-phenyl-propionic acid isopropyl ester]: the “Inhibition of cell proliferation” value in the assay with Human PBMCs [1] is recorded as “inhibited cell proliferation in a dose related fashion”.
With `C=CC[C@H](C(=O)NO)[C@@H](CC(C)C)C(=O)N[C@@H](Cc1ccccc1)C(=O)OC(C)C` [Example 3, 2S-(3S-Hydroxycarbamoyl-2R-isobutyl-hex-5-enoylamino)-3-phenylpropionic acid isopropyl ester], the “TNF, ACTIVATED PPD” value with TNF [4] (10 μM, dmso 50 pg/ml) is 15 pg/mL. Besides, the inhibition at 10 µM in the assay with TNF [4] (Homo sapiens, PBMC, versus dmso, read-out: reduction of the level of TNF production, PPD system) was found to be 70%; with TNF [5] (Homo sapiens, PBMC, versus dmso, read-out: reduction of the level of TNF production, PWM system) it was 64%. In addition, the IC50 turned out to be 1800 nM with Human PBMCs [2] and 2400 nM in the assay on Human PBMCs [3]. In addition, in the assay with TNF [5] (10 μM, dmso 1390 pg/ml), the “TNF, ACTIVATED PWM” value stood at 495 pg/mL.
As for `C=CC[C@H](C(=O)NO)[C@@H](CC(C)C)C(=O)N[C@@H](Cc1ccccc1)C(=O)OC1CCCC1` [Example 19, 2S-(3S-Hydroxycarbamoyl-2R-isobutyl-hex-5-enoylamino)-3-phenylpropionic acid cyclopentyl ester], the “Inhibition of cell proliferation” value in the assay with Human PBMCs [1] was “inhibited cell proliferation in a dose related fashion”. Moreover, the “reduction in mean clinical score compared to vehicle group” value in assay [6] is 93%. For the same compound, the IC50 with Human PBMCs [2] worked out at 1100 nM. Also, in the assay on TNF alpha, the “TNF production (in words)” value is “reduced the level of TNF production” and the TNF alpha was found to be 489 pg/mL.

Source of the values: patent publication US6251940A, “Inflammatory cell inhibitors” (British Biotech Pharmaceuticals Ltd., priority 1998, dated 2001).
